# The source made the active and inactive calls. The rule behind the calls is not given here.
# How the values were obtained:
# [1] = tested on: Mus musculus; assay: Neurotoxicity against Mus musculus Swiss albino (mouse) assessed as inability to maintain equilibrium on rod at 100 mg/kg, ip measured after 0.5 hr by rotarod test; format: toxicity, organism-based; parameters: dose 100 mg/kg, route intraperitoneal; conditions: in vivo
# [2] = tested on: Rattus norvegicus; assay: Neurotoxicity against Rattus norvegicus Wistar (rat) assessed as inability to maintain equilibrium on rod at 30 mg/kg, po measured after 4 hr by rotarod test; format: toxicity, organism-based; parameters: dose 30 mg/kg, route oral; conditions: in vivo
# [3] = tested on: Rattus norvegicus; assay: Neurotoxicity against Rattus norvegicus Wistar (rat) assessed as inability to maintain equilibrium on rod at 30 mg/kg, po measured after 0.5 hr by rotarod test; format: toxicity, organism-based; parameters: dose 30 mg/kg, route oral; conditions: in vivo
# [4] = tested on: Mus musculus; assay: Anticonvulsant activity in Mus musculus Swiss albino (mouse) assessed as reduction in maximal electroshock-induced seizure at 30 mg/kg, ip measured after 4 hr; format: functional, organism-based; parameters: dose 30 mg/kg
# [5] = tested on: Mus musculus; assay: Anticonvulsant activity in Mus musculus Swiss albino (mouse) assessed as reduction in maximal electroshock-induced seizure at 30 mg/kg, ip measured after 0.5 hr; format: functional, organism-based; parameters: dose 30 mg/kg
# [6] = tested on: Mus musculus; assay: Neurotoxicity against Mus musculus Swiss albino (mouse) assessed as inability to maintain equilibrium on rod at 100 mg/kg, ip measured after 4 hr by rotarod test; format: toxicity, organism-based; parameters: dose 100 mg/kg, route intraperitoneal; conditions: in vivo
# [7] = tested on: Rattus norvegicus; assay: Anticonvulsant activity in Rattus norvegicus Wistar (rat) assessed as reduction in maximal electroshock-induced seizures at 30 mg/kg, po measured after 4 hr; format: functional, organism-based; parameters: dose 30 mg/kg
# [8] = tested on: Rattus norvegicus; assay: Anticonvulsant activity in Rattus norvegicus Wistar (rat) assessed as reduction in maximal electroshock-induced seizures at 30 mg/kg, po measured after 0.5 hr; format: functional, organism-based; parameters: dose 30 mg/kg
# [9] = tested on: Rattus norvegicus; assay: Postsynaptic agonist activity at 5HT1A receptor in Rattus norvegicus Wistar (rat) assessed as increase in lower lip retraction at 10 to 20 mg/kg, ip measured after 15 min; format: functional, organism-based
# [10] = tested on: Mus musculus; assay: Binding affinity to 5HT2A receptor in ip dosed Mus musculus Swiss albino (mouse) assessed as effect on +/-DOI-induced head twitching administered 60 min prior to +/-DOI-challenge measured for 20 min; format: functional, organism-based
# [11] = tested on: Mus musculus; assay: Anticonvulsant activity in Mus musculus Swiss albino (mouse) assessed as reduction in maximal electroshock-induced seizure at 300 mg/kg, ip measured after 0.5 hr; format: functional, organism-based; parameters: dose 300 mg/kg
# [12] = tested on: Mus musculus; assay: Neurotoxicity against Mus musculus Swiss albino (mouse) assessed as inability to maintain equilibrium on rod at 30 to 300 mg/kg, ip measured after 4 hr by rotarod test; format: toxicity, organism-based; parameters: dose 30-300 mg/kg, route intraperitoneal; conditions: in vivo
# [13] = tested on: Mus musculus; assay: Anticonvulsant activity in Mus musculus Swiss albino (mouse) assessed as reduction in maximal electroshock-induced seizure at 100 mg/kg, ip measured after 4 hr; format: functional, organism-based; parameters: dose 100 mg/kg
# [14] = tested on: Rattus norvegicus; assay: Presynaptic agonist activity at 5HT1A receptor in Rattus norvegicus Wistar (rat) assessed as change in rectal temperature at 20 mg/kg, ip measured after 90 min (reference value: -0.2 +/- 0.1 degC); format: functional, organism-based; parameters: dose 20 mg/kg
# [15] = tested on: Mus musculus; assay: Neurotoxicity against Mus musculus Swiss albino (mouse) assessed as inability to maintain equilibrium on rod at 30 to 300 mg/kg, ip measured after 0.5 hr by rotarod test; format: toxicity, organism-based; parameters: dose 30-300 mg/kg, route intraperitoneal; conditions: in vivo
# [16] = tested on: Rattus norvegicus; assay: Presynaptic agonist activity at 5HT1A receptor in Rattus norvegicus Wistar (rat) assessed as change in rectal temperature at 20 mg/kg, ip measured after 30 min (reference value: -0.1 +/- 0.1 degC); format: functional, organism-based; parameters: dose 20 mg/kg
# [17] = tested on: Rattus norvegicus; assay: Presynaptic agonist activity at 5HT1A receptor in Rattus norvegicus Wistar (rat) assessed as change in rectal temperature at 10 mg/kg, ip measured after 30 min (reference value: -0.1 +/- 0.1 degC); format: functional, organism-based; parameters: dose 10 mg/kg
# [18] = tested on: Rattus norvegicus; assay: Presynaptic agonist activity at 5HT1A receptor in Rattus norvegicus Wistar (rat) assessed as change in rectal temperature at 10 mg/kg, ip measured after 120 min (reference value: 0.0 +/- 0.1 degC); format: functional, organism-based; parameters: dose 10 mg/kg
# [19] = tested on: Rattus norvegicus; assay: Presynaptic agonist activity at 5HT1A receptor in Rattus norvegicus Wistar (rat) assessed as change in rectal temperature at 10 mg/kg, ip measured after 90 min (reference value: -0.2 +/- 0.1 degC); format: functional, organism-based; parameters: dose 10 mg/kg
# [20] = tested on: Rattus norvegicus; assay: Presynaptic agonist activity at 5HT1A receptor in Rattus norvegicus Wistar (rat) assessed as change in rectal temperature at 20 mg/kg, ip measured after 120 min (reference value: 0.0 +/- 0.1 degC); format: functional, organism-based; parameters: dose 20 mg/kg
# [21] = tested on: Rattus norvegicus; assay: Presynaptic agonist activity at 5HT1A receptor in Rattus norvegicus Wistar (rat) assessed as change in rectal temperature at 20 mg/kg, ip measured after 60 min (reference value: 0.0 +/- 0.1 degC); format: functional, organism-based; parameters: dose 20 mg/kg
# [22] = tested on: Mus musculus; assay: Anticonvulsant activity in Mus musculus Swiss albino (mouse) assessed as reduction in maximal electroshock-induced seizure at 100 mg/kg, ip measured after 0.5 hr; format: functional, organism-based; parameters: dose 100 mg/kg
# [23] = tested on: Rattus norvegicus; assay: Presynaptic agonist activity at 5HT1A receptor in Rattus norvegicus Wistar (rat) assessed as change in rectal temperature at 10 mg/kg, ip measured after 60 min (reference value: 0.0 +/- 0.1 degC); format: functional, organism-based; parameters: dose 10 mg/kg
# [24] = tested on: Rattus norvegicus; assay: Antagonist activity at 5HT1A receptor in Rattus norvegicus Wistar (rat) assessed as change in rectal temperature at 0.1 mg/kg, sc measured after 30 min (reference value: -0.1 +/- 0.1 degC); format: functional, organism-based; parameters: dose 0.1 mg/kg
# [25] = tested on: Rattus norvegicus; assay: Presynaptic antagonist activity at 5HT1A receptor in Rattus norvegicus Wistar (rat) assessed as change in rectal temperature at 0.1 mg/kg, sc measured after 60 min (reference value: 0.0 +/- 0.1 degC); format: functional, organism-based; parameters: dose 0.1 mg/kg
# [26] = tested on: Rattus norvegicus; assay: Postsynaptic antagonist activity at 5HT1A receptor in Rattus norvegicus Wistar (rat) assessed as inhibition of 8-OH-DPAT-induced lower lip retraction at 0.1 mg/kg, sc administered 45 min prior to 8-OH-DPAT-challenge measured after 15 min; format: functional, organism-based; parameters: dose 0.1 mg/kg
# [27] = tested on: Rattus norvegicus; assay: Presynaptic antagonist activity at 5HT1A receptor in Rattus norvegicus Wistar (rat) assessed as change in rectal temperature at 0.1 mg/kg, sc measured after 90 min (reference value: -0.2 +/- 0.1 degC); format: functional, organism-based; parameters: dose 0.1 mg/kg
# [28] = tested on: Rattus norvegicus; assay: Presynaptic antagonist activity at 5HT1A receptor in Rattus norvegicus Wistar (rat) assessed as change in rectal temperature at 0.1 mg/kg, sc measured after 120 min (reference value: 0.0 +/- 0.1 degC); format: functional, organism-based; parameters: dose 0.1 mg/kg
compound,measurement,setting,value
O=C1NC(=O)C(c2ccccc2)(c2ccccc2)N1 [PHENYTOIN],Activity,[1],Toxic
same,Activity,[2],Non-toxic
same,Activity,[3],Non-toxic
same,Activity,[4],Active
same,Activity,[5],Active
same,Activity,[6],Toxic
same,Activity,[7],Active
same,Activity,[8],Active
COc1ccc(NCCN2C(=O)NC(c3ccccc3)(c3ccccc3)C2=O)cc1,Activity,[9],Active
same,Activity,[10],inactive
same,Activity,[11],Active
same,Activity,[2],Non-toxic
same,Activity,[3],Non-toxic
same,Activity,[12],Non-toxic
same,Activity,[13],Active
same,deltaT,[14],-1.8 °C
same,Activity,[15],Non-toxic
same,deltaT,[16],-1.2 °C
same,deltaT,[17],-0.5 °C
same,deltaT,[18],-0.6 °C
same,deltaT,[19],-0.8 °C
same,deltaT,[20],-1.3 °C
same,deltaT,[21],-1.5 °C
same,Activity,[22],Active
same,Activity,[7],inactive
same,deltaT,[23],-0.6 °C
same,Activity,[8],inactive
COc1ccccc1N1CCN(CCN(C(=O)C2CCCCC2)c2ccccn2)CC1,deltaT,[24],0.2 °C
same,deltaT,[25],0.2 °C
same,inhibition,[26],Active
same,deltaT,[27],0.1 °C
same,deltaT,[28],0.2 °C

# Reference: ChEMBL document CHEMBL3044586, “Design, synthesis, and anticonvulsant screening of some substituted piperazine and aniline derivatives of 5-phenyl-oxazolidin-2,4-diones and 5,5-diphenylimidazolidin-2,4 diones” (Med Chem Res, 2012)
